The numbers were not newly measured in patent US20130031645A1, “METHOD FOR HEPATIC DIFFERENTIATION OF DEFINITIVE ENDODERM CELLS” (priority 2009, published 2013), which cites them from elsewhere.

For data set [1], the system named is retinoic acid receptors (RARs).

Turning to `CC1=C(/C=C/C(C)=C/C=C/C(C)=C/C(=O)O)C(C)(C)CCC1` [ATRA, All-trans retinoic acid], the “binding to the RXR receptors” value in the data set with RXR receptors is given as “does not bind”. Further, the “affinity for the three RAR subtypes” value in data set [1] is “approximately equal affinity”.
